{
  "source": "patent US20130109746A1",
  "about": "“COMPOSITION COMPRISING ELLAGIC ACID AND A PARTICULAR CATIONIC SURFACTANT, AND COSMETIC USE THEREOF” (L'OREAL S.A., priority 2010, published 2013)",
  "origin": "cited, not measured here",
  "settings": "in water and in the solvents and oils commonly used in cosmetic compositions",
  "data": [
    {"smiles": "O=c1oc2c(O)c(O)cc3c(=O)oc4c(O)c(O)cc1c4c23", "note": "[ellagic acid, 2,3,7,8-tetrahydroxy(1)benzopyrano(5,4,3-cde)(1)benzopyran-5,10-dione]", "values": [
      {"measurement": "solubility", "value": "very sparingly soluble"}
    ]}
  ]
}
